Data taken from US12239652B2, “Composition for preventing or treating muscular diseases, or for improving muscular functions, containing ganglioside” (INDUSTRY-ACADEMIC COOPERATION FOUNDATION, YONSEI UNIVERSITY, priority 2018, dated 2025).

How the values were obtained:
[1] = system: p-p70S6K; assay: Western blot of mRNA translation biomarkers in TNF-α-treated L6 myotubes: p-p70S6K; assay type: cell-based; settings: 50 ng/mL TNF-α, 1 μM or 5 μM
Method: (§1) L6 myoblasts (ATCC) were seeded with DMEM (Hyclone) supplemented with 10% FBS (Hyclone) in a 6-well plate at a density of 1×10^5 cells/well, followed by culture. When the cultured cells reached a confluency of ˜80-85% per well, the media in the wells were replaced with DMEM (Hyclone) supplemented with 2% HS (Hyclone), followed by culture for additional 6 days to induce differentiation into myotubes. During culture for 6 days, the culture media were changed once every other day a total of 3 times. […] A group treated with 0.01% DMSO instead of the sample was used as a control. Cells were lysed with NP-40 buffer (ELPIS-Biotech, Daej eon, Korea) with a protease inhibitor cocktail (Sigma-Aldrich, St. Louis, MO, USA) and centrifuged at 13,000 rpm for 10 min. The cell lysate was obtained from the supernatant. The concentration of proteins in the supernatant was determined by the Bradford method (Bio-Rad Laboratories Inc.). Proteins at a certain concentration were heated for 5 min and separated by SDS-PAGE electrophoresis. The separated proteins were transferred to nitrocellulose membranes. Then, p-mTOR, mTOR, p-p70S6K, p70S6K, p-4EBP1, 4EBP1, and alpha-tubulin primary antibodies (Cell signaling technology, Beverly, MA, USA) were diluted at a ratio of 1:1000 with 2.5% bovine serum albumin (BSA; Bioworld, Dubin, OH, USA) and incubated with the proteins transferred to the nitrocellulose membranes at room temperature for 20 h. After incubation of the primary antibodies, the nitrocellulose membranes were washed 3 times with Tris-buffer saline Tween 20 (TBST) for 10 min. After washing, an anti-rabbit secondary antibody (Bethyl Laboratories, Inc., Montgomery, TA, USA) conjugated with horseradish peroxidase recognizing the primary antibodies was diluted 1:5000 with 2.5% BSA (Bioworld) and incubated with the nitrocellulose membranes at room temperature for 2 h. […]
(§2) Protein bands detected through antibody binding were developed using an ECL western blot detection reagent (Amersham, Tokyo, Japan) and visualized using a G;BOX EF imaging system (Syngene, Cambridge, UK). […]

[2] = system: atrogin-1; assay: RT-PCR of muscle degrading protein mRNA in TNF-α-treated L6 myotubes: atrogin-1; assay type: cell-based; settings: 50 ng/mL TNF-α, 1 μM or 5 μM
Method: (§3) L6 myoblasts (ATCC) were seeded with DMEM (Hyclone) supplemented with 10% FBS (Hyclone) in a 6-well plate at a density of 1×10^5 cells/well, followed by culture. When the cultured cells reached a confluency of ˜80-85% per well, the media in the wells were replaced with DMEM (Hyclone) supplemented with 2% HS (Hyclone), followed by culture for additional 6 days to induce differentiation into myotubes. During culture for 6 days, the culture media were changed once every other day a total of 3 times. The differentiation-induced cells were harvested and the cell media were replaced with DMEM supplemented with 50 ng/mL TNF-α (PeproTech) in which ganglioside GM3 (Cayman) was dissolved at a concentration of 1 μM or 5 μM. A group treated with 0.01% DMSO instead of the sample was used as a control. Total RNA was isolated from cells using TRIzol reagent (Takara, Kyoto, Japan). The isolated total RNA was quantified using NanoDrop 1000 (Thermo Fisher Scientific Inc., Waltham, MA, USA). 16 μL of the RNA was synthesized into cDNA using Reverse Transcriptase Premix (ELPIS-Biotech) and a PCR system (Gene Amp PCR System 2700; Applied Biosystems, Foster City, CA, USA) at 42° C. for 55 min and 70° C. for 15 min. 3 μL of the synthesized cDNA, the specific primers shown in Table 1 (Bioneer, Daej eon, Korea), and PCR premix (ELPIS-Biotech) were mixed and PCR was repeated 30 times at 95° C. for 30 sec, 60° C. for 1 min, and 72° C. for 1 min. After PCR amplification, cDNA was separated by electrophoresis on a 1.5% agarose gel and the cDNA bands were visualized using a G;BOX EF imaging system (Syngene).
(§4) The procedure of Example 8 was repeated except that cells were treated with ganglioside GM1 (Cayman) at a concentration of 15 μM or 25 μM to investigate the mRNA transcription and expression levels of atrogin-1 and MuRF1 as muscle degrading proteins.
(§5) The procedure of Example 8 was repeated except that cells were treated with ganglioside GD1a (Cayman) at a concentration of 1 μM or 3 μM to investigate the mRNA transcription and expression levels of atrogin-1 and MuRF1 as muscle protein degradation-related enzymes.
(§6) The procedure of Example 8 was repeated except that cells were treated with each of gangliosides GT1b and GQ1b (Cayman) at a concentration of 1 μM to investigate the mRNA transcription and expression levels of atrogin-1 and MuRF1 as muscle protein degradation-related enzymes.

[3] = system: MuRF1; assay: RT-PCR of muscle degrading protein mRNA in TNF-α-treated L6 myotubes: MuRF1; assay type: cell-based; settings: 50 ng/mL TNF-α, 1 μM or 5 μM
Method: as §3, §4, §5, §6

[4] = system: Wistar rats; assay: Muscle mass (soleus weight) in TNF-α-induced muscular atrophy animal model; assay type: in vivo; settings: 50 mg/kg body weight once a day for 8 weeks
Method: Wistar rats, aged five weeks, were acclimatized for one week and supplied with 100 ng/g of TNF-α for 2 weeks to induce muscular atrophy. The animals were randomly divided into a total of 5 groups, 8 animals per group, depending on their weight. Each of gangliosides GM3, GM1, GD1a, GT1b, and GQ1b (each 50 mg/kg body weight) as experimental groups was suspended in 0.25% carboxymethylcellulose. The suspension was administered at a given time once a day for 8 weeks. A group administered the same amounts of 0.25% carboxymethyl cellulose and TNF-α ingested by each experimental group was used as a control.
After administration of the sample for 8 weeks, the right soleus was dissected and its weight was measured with a microbalance (Mettler PE160, USA).

[5] = system: mTOR; assay: mTOR Sandwich ELISA in L6 myotubes (activity for myogenic induction); assay type: cell-based; settings: 1 μM or 5 μM, 12-h culture, *P<0.05
Method: The mTOR protein is known to induce the activation of proteins involved in muscle protein synthesis and an increase in muscle mass in the PI3K/Akt signaling pathway in muscle cells when phosphorylated and activated. Thus, the activity of mTOR was confirmed using an mTOR Sandwich ELISA kit (Cell Signaling Technology, Beverly, MA, USA) to determine the activity of ganglioside GM3 for myogenic induction.
L6 myoblasts (ATCC; Manassas, VA, USA) were seeded with Dulbecco's modified Eagle's media (DMEM; Hyclone) supplemented with 10% fetal bovine serum (FBS; Hyclone, Logan, UT, USA) in a 6-well plate at a density of 1×10^5 cells/well, followed by culture for 24 h. The media in the wells were replaced with DMEM (Hyclone) supplemented with 2% horse serum (HS; Hyclone), followed by culture for additional 6 days to differentiate the L6 cells into myotubes. Then, cells were treated with ganglioside GM3 (Cayman, Ann Arbor, MI, USA) at a concentration of 1 μM or 5 μM. After 12-h culture, cells were lysed by treatment with a cell lysis buffer. Proteins in the cell lysate were quantified by the Bradford method (Bio-Rad Laboratories Inc., Hercules, CA, USA) and the concentration of the cell lysate was then adjusted to 1 mg/mL. The cell lysate was plated in microwells bound with anti-mTOR antibody (50 μL/well) and cultured at 37° C. for 2 h. Cells were washed a total of 4 times with a washing buffer, treated with a detection antibody, and cultured at 37° C. for 1 h, rewashed a total of 4 times with a washing buffer, added with a horseradish peroxidase (HRP)-conjugated secondary antibody, and cultured at 37° C. for 30 min. Finally, after washing a total of 4 times with a washing buffer, TMB substrate was added to each well. After culture at 37° C. for 10 min, a stop solution was added to stop the TMB reaction. 2 min later, absorbance was measured at a wavelength of 450 nm to determine the level of mTOR in the myotubes treated with ganglioside GM3.
The procedure of Example 1 was repeated except that cells were treated with ganglioside GM1 (Cayman) at a concentration of 15 μM or 25 μM to examine the activity of the ganglioside for myogenic induction.
The procedure of Example 1 was repeated except that cells were treated with ganglioside GD1a (Cayman) at a concentration of 1 μM or 3 μM to examine the activity of the ganglioside for myogenic induction.
The procedure of Example 1 was repeated except that cells were treated with each of gangliosides GT1b and GQ1b (Cayman) at a concentration of 1 μM to examine the activity of the ganglioside for myogenic induction.

[6] = system: p-4EBP1; assay: Western blot of mRNA translation biomarkers in TNF-α-treated L6 myotubes: p-4EBP1; assay type: cell-based; settings: 50 ng/mL TNF-α, 1 μM or 5 μM
Method: as §1, §2

[7] = system: p-mTOR; assay: Western blot of mRNA translation biomarkers in TNF-α-treated L6 myotubes: p-mTOR; assay type: cell-based; settings: 50 ng/mL TNF-α, 1 μM or 5 μM
Method: as §1, §2

In the case of `CCCCCCCCCCCCC/C=C/[C@@H](O)[C@H](CO[C@@H]1OC(CO)[C@@H](O[C@@H]2OC(CO)[C@@H](O)C(O[C@]3(C(=O)O)CC(O)[C@@H](NC(C)=O)C([C@@H](O)[C@H](O)CO)O3)C2O)C(O)C1O)NC(=O)CCCCCCCCCCCCCCCCC` (some centres unmarked) [Ganglioside GM3, ganglioside GM3], the “expression level of phosphorylated p-P70S6K in L6 muscle cells” value [1] is reported as “increased”, the “mRNA expression level of atrogin-1 in L6 muscle cells” value [2] is reported as “reduced” and the “mRNA expression level of MuRF1 in L6 muscle cells” value [3] is reported as “reduced”. The “increase of muscle (soleus) weight compared to the control group” value [4] was 23.56%, the Average soleus weight ([4]; right soleus, control 416.0 ± 19.57) was 514.0 ± 18.4 mg and the “activity of mTOR in L6 muscle cells” value [5] was “significantly increased”. The “expression level of phosphorylated p-4EBP1 in L6 muscle cells” value [6] was “increased” and the “expression level of phosphorylated p-mTOR in L6 muscle cells” value [7] was “increased”.
